This passage reports Activity, ED50 and ED40 results from ChEMBL document CHEMBL3272053, “(exo, exo)-2-Aryltropane-3-carboxylic esters, hypoglycemic agents with accompanying analgesic activity” (J Med Chem, 1978).

Structures are written as SMILES. The source made the active and inactive calls. No cut-off for these calls is given here. Bounds are passed on as bounds.

Data set [1] deals with Rattus norvegicus. As to the kind of experiment: Toxicity in fasted Sprague-Dawley rat assessed as mortality at 240 mg/kg, po measured at 60 mins. The format is organism-based. More on the design: dose 240 mg/kg, route oral. Particulars: in vivo, 1 h.
The subject of data set [2] is Rattus norvegicus. As to the kind of experiment: Narcotic antagonist activity in fed Sprague-Dawley rat assessed as decrease in phenazocine-induced analgesic activity at 80 mg/kg, sc. Type of data set: functional. The arrangement: scale not given: the % may be the effect or the level left. Particulars: route subcutaneous.
Data set [3] deals with Mus musculus. As to the kind of experiment: Analgesic activity in sc dosed Swiss-Webster mouse assessed as reduction of acetylcholine-induced writhing. To be noted: Mus musculus, Swiss-Webster, sc; for ED50: read-out: ED50. The format is functional. (An intraperitoneal irritant provokes the stretching counted in writhing tests.)
For data set [4], the system named is Rattus norvegicus. As to the kind of experiment: Toxicity in Sprague-Dawley rat assessed as convulsion at 240 mg/kg, po. The format is organism-based. More on the design: dose 240 mg/kg, route oral. To be noted: in vivo.
In data set [5] the test system is Rattus norvegicus. As to the kind of experiment: Hypoglycemic activity in glucose loaded Sprague-Dawley rat assessed as reduction of blood glucose level at 88 mg/kg, po relative to control. Type of data set: functional. More on the design: scale not given: the % may be the effect or the level left.
For data set [6], the system named is Mus musculus. Briefly: Toxicity in Swiss-Webster mouse assessed as stimulation of straub tail at 2.5 mg/kg, sc after 15 to 25 mins. Type of data set: organism-based. More on the design: dose 2.5 mg/kg, route subcutaneous. To be noted: in vivo.
The subject of data set [7] is Rattus norvegicus. As to the kind of experiment: Narcotic analgesic activity in fasted Sprague-Dawley rat at 120 mg/kg, po measured at 15 mins by D'Amour-Smith tail-flick test relative to control. The format is functional. For orientation: Thermal pain tests record how soon the animal reacts.
Data set [8] has as its system Mus musculus. Briefly: Analgesic activity in Swiss-Webster mouse assessed as reduction of acetylcholine-induced writhing at 25 mg/kg, sc relative to control. The arrangement: scale not given: the % may be the effect or the level left. Particulars: route subcutaneous. Type of data set: functional.
In data set [9] the test system is Rattus norvegicus. Briefly: Narcotic analgesic activity in fasted Sprague-Dawley rat at 240 mg/kg, po measured at 15 mins by D'Amour-Smith tail-flick test relative to control. Type of data set: functional.
Data set [10] concerns Rattus norvegicus. As to the kind of experiment: Hypoglycemic activity in fasted Sprague-Dawley rat assessed as reduction of blood glucose level at 89 mg/kg, po relative to control. Type of data set: functional. The arrangement: scale not given: the % may be the effect or the level left.
Data set [11] concerns Rattus norvegicus. Briefly: Toxicity in rat assessed as slight rigidity at 480 mg/kg, po. The format is organism-based. The arrangement: dose 480 mg/kg, route oral. To be noted: in vivo.
Data set [12] concerns Mus musculus. As to the kind of experiment: Analgesic activity in Swiss-Webster mouse assessed as reduction of acetylcholine-induced writhing at 75 mg/kg, sc relative to control. The format is functional. More on the design: scale not given: the % may be the effect or the level left. Particulars: route subcutaneous.
Data set [13] concerns Rattus norvegicus. Briefly: Toxicity in Sprague-Dawley rat assessed as stiff tail at 480 mg/kg, po. The format is organism-based. More on the design: dose 480 mg/kg, route oral. Particulars: in vivo.
Data set [14] deals with Rattus norvegicus. As to the kind of experiment: Narcotic analgesic activity in fasted Sprague-Dawley rat at 240 mg/kg, po measured at 60 mins by D'Amour-Smith tail-flick test relative to control. The format is functional.
For data set [15], the system named is Rattus norvegicus. Briefly: Toxicity in Sprague-Dawley rat assessed as jumpy behavior at 480 mg/kg, po. To be noted: in vivo. The format is organism-based. More on the design: dose 480 mg/kg, route oral.
For data set [16], the system named is Rattus norvegicus. Briefly: Hypoglycemic activity in Sprague-Dawley rat assessed as reduction of blood glucose level at 100 mg/kg, po by glucagon-impaired glucose disposal test relative to control. More on the design: scale not given: the % may be the effect or the level left. The format is functional.
The subject of data set [17] is Rattus norvegicus. As to the kind of experiment: Hypoglycemic activity in glucose loaded Sprague-Dawley rat assessed as reduction of blood glucose level at 84 mg/kg, po relative to control. Type of data set: functional. More on the design: scale not given: the % may be the effect or the level left.
Data set [18] has as its system Rattus norvegicus. Briefly: Toxicity in Sprague-Dawley rat assessed as tremor at 240 mg/kg, sc. Type of data set: organism-based. More on the design: dose 240 mg/kg, route subcutaneous. Particulars: in vivo.
Data set [19] concerns Rattus norvegicus. Briefly: Narcotic analgesic activity in fasted Sprague-Dawley rat at 120 mg/kg,sc measured at 30 mins by D'Amour-Smith tail-flick test in presence of opioid antagonist nalorphine. Type of data set: functional, organism-based. More on the design: dose 120 mg/kg.
The test system of data set [20] is Rattus norvegicus. As to the kind of experiment: Toxicity in Sprague-Dawley rat assessed as rigidity at 240 mg/kg, sc. Type of data set: organism-based. The arrangement: dose 240 mg/kg, route subcutaneous. To be noted: in vivo.
For data set [21], the system named is Rattus norvegicus. As to the kind of experiment: Narcotic analgesic activity in fed Sprague-Dawley rat at 240 mg/kg, sc measured at 30 mins by D'Amour-Smith tail-flick test. The format is functional. To be noted: route subcutaneous.
Data set [22] has as its system Rattus norvegicus. As to the kind of experiment: Narcotic analgesic activity in fasted Sprague-Dawley rat at 120 mg/kg, po measured at 60 mins by D'Amour-Smith tail-flick test relative to control. Type of data set: functional.
The test system of data set [23] is Rattus norvegicus. As to the kind of experiment: Hypoglycemic activity in Sprague-Dawley rat assessed as reduction of blood glucose level at 88 mg/kg, po by glucagon-impaired glucose disposal test in presence of opioid antagonist nalorphine. The format is functional, organism-based. The arrangement: dose 88 mg/kg.
Data set [24] relates to Rattus norvegicus. Briefly: Hypoglycemic activity in Sprague-Dawley rat assessed as reduction of blood glucose level at 88 mg/kg, po by glucagon-impaired glucose disposal test relative to control. The format is functional. More on the design: scale not given: the % may be the effect or the level left.
Data set [25] deals with Rattus norvegicus. Briefly: Hypoglycemic activity in Sprague-Dawley rat assessed as reduction of blood glucose level at 100 mg/kg, po. The format is functional, organism-based. More on the design: dose 100 mg/kg.
For data set [26], the system named is Rattus norvegicus. As to the kind of experiment: Hypoglycemic activity in Sprague-Dawley rat assessed as reduction of blood glucose level at 88 mg/kg, po by glucagon-impaired glucose disposal test in presence of microsomal enzyme inhibitor SKF 525-A. More on the design: dose 88 mg/kg. Type of data set: functional, organism-based.
The species named for data set [27] is Rattus norvegicus. As to the kind of experiment: Narcotic analgesic activity in Sprague-Dawley rat at 15 mins by D'Amour-Smith tail-flick test in presence of microsomal enzyme inhibitor SKF 525-A. The format is functional, organism-based.
Data set [28] deals with Rattus norvegicus. As to the kind of experiment: Hypoglycemic activity in Sprague-Dawley rat assessed as reduction of blood glucose level at 300 mg/kg, po by glucagon-impaired glucose disposal test relative to control. Type of data set: functional. More on the design: scale not given: the % may be the effect or the level left.
The test system of data set [29] is Rattus norvegicus. As to the kind of experiment: Toxicity in Sprague-Dawley rat assessed as hyperexcitability at 240 mg/kg, po. Type of data set: organism-based. The arrangement: dose 240 mg/kg, route oral. Particulars: in vivo.
The test system of data set [30] is Rattus norvegicus. As to the kind of experiment: Hypoglycemic activity in Sprague-Dawley rat assessed as reduction of blood glucose level at 87 mg/kg, po by glucagon-impaired glucose disposal test in presence of microsomal enzyme inhibitor SKF 525-A. Type of data set: functional, organism-based. The arrangement: dose 87 mg/kg.
Data set [31] concerns Rattus norvegicus. Briefly: Toxicity in Sprague-Dawley rat assessed as tremor at 120 mg/kg, po. The format is organism-based. More on the design: dose 120 mg/kg, route oral. To be noted: in vivo.
The test system of data set [32] is Rattus norvegicus. As to the kind of experiment: Hypoglycemic activity in Sprague-Dawley rat assessed as reduction of blood glucose level at 87 mg/kg, po by glucagon-impaired glucose disposal test relative to control. The format is functional. More on the design: scale not given: the % may be the effect or the level left.
Data set [33] has as its system Rattus norvegicus. As to the kind of experiment: Toxicity in Sprague-Dawley rat assessed as hyperexcitability at 120 mg/kg, po. Type of data set: organism-based. More on the design: dose 120 mg/kg, route oral. Particulars: in vivo.
Data set [34] relates to Rattus norvegicus. Briefly: Hypoglycemic activity in fasted Sprague-Dawley rat assessed as reduction of blood glucose level at 78 mg/kg, iv relative to control. The arrangement: dose 78 mg/kg. Type of data set: functional, organism-based.
In data set [35] the test system is Rattus norvegicus. Briefly: Hypoglycemic activity in fasted Sprague-Dawley rat assessed as reduction of blood glucose level at 78 mg/kg, po relative to control. Type of data set: functional. The arrangement: scale not given: the % may be the effect or the level left.

Take `COC(=O)[C@H]1C[C@H]2CC[C@H]([C@H]1c1ccccc1)N2C` (stereo in doubt; (-)-5): the figures for the Activity entry with Rattus norvegicus [1], in the data set with Rattus norvegicus [2] and with Rattus norvegicus [4] were “Toxic”, 73% and “Toxic”, respectively. Besides, the ED50 with Mus musculus [3] is 18 mg/kg.

On to `CCOC(=O)[C@H]1C[C@H]2CC[C@@H](N2)[C@H]1c1cccs1.Cl`, for which the figures for the Activity in the data set on Rattus norvegicus [5], in the data set with Mus musculus [6] and with Rattus norvegicus [7] were 66%, “Toxic” and 85%, respectively. For the same molecule, the ED50 in the data set with Mus musculus [3] is 2.8 mg/kg.

`COC(=O)[C@H]1C[C@H]2CC[C@H]([C@H]1c1cccs1)N2C(C)C.Cl`: the Activity was 13% in the data set with Mus musculus [8], 87% in the data set with Rattus norvegicus [9], 40% in the data set with Rattus norvegicus [10] and “Toxic” in the data set with Rattus norvegicus [4].

On to `CCCCCCCN1[C@@H]2CC[C@@H]1[C@@H](c1cccs1)[C@@H](C(=O)OC)C2`, for which the Activity entry in the data set on Rattus norvegicus [11] is “Toxic”; in the data set on Mus musculus [12] it was 27%; in the data set with Rattus norvegicus [13], “Toxic”; with Rattus norvegicus [14], 70%; in the data set with Rattus norvegicus [15] it was “Toxic”; in the data set with Rattus norvegicus [16] it was 40%.

As for `COC(=O)[C@H]1C[C@H]2CC[C@H]([C@H]1C)N2C.Cl`, in the data set on Rattus norvegicus [17], the Activity was under 20%.

On to `COC(=O)[C@@H]1C[C@@H]2CC[C@@H]([C@@H]1c1cccs1)N2C.Cl`, for which the Activity result is recorded as “Toxic” in the data set on Rattus norvegicus [18]; “Toxic” in the data set with Rattus norvegicus [20]; 62% in the data set with Rattus norvegicus [21]; 26% in the data set with Rattus norvegicus [22]; under 20% in the data set on Rattus norvegicus [24]. The result in the data set with Rattus norvegicus [19], in the data set on Rattus norvegicus [25], in the data set on Rattus norvegicus [26] and in the data set listed under Rattus norvegicus [27] was inactive. Also, the outcome in the data set with Rattus norvegicus [23] was Active.

For the molecule `COC(=O)[C@H]1C[C@H]2CC[C@H]([C@H]1c1ccsc1)N2C`, the Activity is recorded as 42% with Rattus norvegicus [28], “Toxic” with Rattus norvegicus [29] and 40% in the data set on Rattus norvegicus [14]. For the same molecule, the ED40 in the data set on Mus musculus [3] stood at 12 mg/kg.

As to `COC(=O)[C@H]1C[C@H]2CC[C@@H](N2)[C@H]1c1ccccc1.Cl`, the result in the data set with Rattus norvegicus [30] was Active. Also, the Activity entry in the data set on Rattus norvegicus [31] was “Toxic”; in the data set with Rattus norvegicus [32], 31%; with Rattus norvegicus [33] it was “Toxic”; with Rattus norvegicus [7], 69%. The ED50 in the data set on Mus musculus [3] came out at 4 mg/kg.

Turning to `Cl.O=C(O)[C@H]1C[C@H]2CC[C@@H](N2)[C@H]1c1cccs1`, the outcome with Rattus norvegicus [34] was inactive. For the same molecule, in the data set on Rattus norvegicus [35], the Activity was under 20%.

The term ED50 denotes the dose that gives a 50% effect, or the effect in half of the subjects.
